Type in all cases: cell-based
One experiment relates to S. aureus. The experiment in a line: Broth dilution MIC determination (CLSI) against S. aureus strains. An excerpt: (§1) Minimum inhibitory concentrations (MICs) for macrolides described herein have been determined for unique strains of S. aureus, S. pneumoniae, S. pyogenes, E. faecalis, E. coli, A. baumannii, K. pneumoniae, P. aeruginosa, and H. influenzae, including several multidrug-resistant strains, with a special focus on macrolide resistant mechanisms. Azithromycin and solithromycin were included as control compounds. CLSI standard procedures for broth dilution MIC determination were used. Data for exemplary compounds described herein is shown in Tables M1-M7 and in Tables N1-N4.
(In general: Dilution methods test growth across graded concentrations, often in twofold steps.)

In a further experiment the test system is A. baumannii. The experiment in a line: Broth dilution MIC determination (CLSI) against A. baumannii strains.
From the text: as §1

A further experiment has as its system P. aeruginosa. As to the kind of experiment: Broth dilution MIC determination (CLSI) against P. aeruginosa strains.
From the text: as §1

The test system of a further experiment is K. pneumoniae. The experiment in a line: Broth dilution MIC determination (CLSI) against K. pneumoniae strains. The source says: Minimum inhibitory concentrations (MICs) for macrolides described herein have been determined for unique strains of S. aureus, S. pneumoniae, S. pyogenes, E. faecalis, E. coli, A. baumannii, K. pneumoniae, P. aeruginosa, and H. influenzae, including several multidrug-resistant strains, with a special focus on macrolide resistant mechanisms. Azithromycin and solithromycin were included as control compounds. CLSI standard procedures for broth dilution MIC determination were used.

Another experiment deals with E. coli. As to the kind of experiment: Broth dilution MIC determination (CLSI) against E. coli strains.
From the text: as §1

Setting [1] is: S. aureus ATCC29213, strain MP-12 (Table N4).
Setting [2] is: S. aureus BAA 977 iErm, strain MP-17 (Table N4).
Where [3] appears, read: S. aureus Clinical-cErm, strain MP-513 (Table N4).
[4] abbreviates: S. aureus USA300-msr(a), strain MP-549 (Table N4).
The mark [5] stands for this setting: A. baumannii ATCC 19606, strain MP-15 (Table N4).
Where [6] appears, read: A. baumannii Clinical-AZT low, strain MP-577 (Table N4).
[7] abbreviates: A. baumannii Clinical-MDR, strain MP-576 (Table N4).
Setting [8] is: P. aeruginosa ATCC27853, strain MP-3 (Table N4).
Where [9] appears, read: P. aeruginosa PAO1, strain MP-7 (Table N4).
Setting [10] is: P. aeruginosa mex-oprM-deletion, strain MP-8 (Table N4).
The mark [11] stands for this setting: K. pneumoniae ATCC 10031, strain MP-14 (Table N4).
[12] abbreviates: K. pneumoniae Clinical, strain MP-548 (Table N4).
Where [13] appears, read: K. pneumoniae Clinical-MDR, strain MP-546 (Table N4).
Where [14] appears, read: E. coli ATCC25922, strain MP-4 (Table N4).
Where [15] appears, read: E. coli Clinical, strain MP-541 (Table N4).
Where [16] appears, read: E. coli clinical-cErmB, strain MP-532 (Table N4).
Setting [17] is: E. coli tolC, strain MP-9 (Table N4).

Converted amounts (≈) assume the structure as drawn.

In general, MIC refers to the lowest concentration found to suppress growth. A higher MIC goes with a less susceptible organism. `CCC1OC(=O)C(C)C(=O)C(C)C(OC2OC(C)CC(N3CCC(O)C3)C2O)C(C)(OC)CC(C)CNC(C)C2N(CCCCn3cc(-c4cccc(N)c4)nn3)C(=O)OC12C` (centres unmarked) [FSM-120417]: the MIC was 32 µg/mL (≈ 36.8 µM) with S. aureus (setting [1]); 64 µg/mL (≈ 73.6 µM) with S. aureus (setting [2]); >64 µg/mL against S. aureus (setting [3]); 64 µg/mL (≈ 73.6 µM) against S. aureus (setting [4]); 32 µg/mL (≈ 36.8 µM) in the experiment with A. baumannii (setting [5]); 32 µg/mL (≈ 36.8 µM) in the experiment on A. baumannii (setting [6]). The minimal inhibitory concentration (MIC) against A. baumannii (setting [7]) is >64 µg/mL; with P. aeruginosa (setting [8]), >64 µg/mL; with P. aeruginosa (setting [9]), >64 µg/mL; with P. aeruginosa (setting [10]) it was 32 µg/mL (≈ 36.8 µM); against K. pneumoniae (setting [11]), 4 µg/mL (≈ 4.6 µM); against K. pneumoniae (setting [12]), 64 µg/mL (≈ 73.6 µM). Moreover, the MIC is >64 µg/mL with K. pneumoniae (setting [13]); 16 µg/mL (≈ 18.4 µM) in the experiment with E. coli (setting [14]); 16 µg/mL (≈ 18.4 µM) against E. coli (setting [15]); >64 µg/mL with E. coli (setting [16]); 2 µg/mL (≈ 2.3 µM) against E. coli (setting [17]).

For the molecule `CCC1OC(=O)C(C)C(=O)C(C)C(OC2OC(C)CC(N3CCC(O)C3)C2O)C(C)(OC)CC(C)CNC(C)C2N(CCCCn3cc(-c4cccc(N)c4)nn3)C(=O)OC12C` (centres unmarked) [FSM-120416], the minimum inhibitory concentration (MIC) against S. aureus (setting [1]), against S. aureus (setting [2]), in the experiment on S. aureus (setting [3]), with S. aureus (setting [4]), in the experiment with A. baumannii (setting [5]) and in the experiment on A. baumannii (setting [6]) was >64 µg/mL throughout. Besides, the minimal inhibitory concentration (MIC) with A. baumannii (setting [7]) was >64 µg/mL; with P. aeruginosa (setting [8]), >64 µg/mL; in the experiment with P. aeruginosa (setting [9]) it was >64 µg/mL; in the experiment on P. aeruginosa (setting [10]), >64 µg/mL; in the experiment on K. pneumoniae (setting [11]), 32 µg/mL (≈ 36.8 µM); against K. pneumoniae (setting [12]), >64 µg/mL. Moreover, the minimal inhibitory concentration (MIC) against K. pneumoniae (setting [13]) was >64 µg/mL; against E. coli (setting [14]), >64 µg/mL; in the experiment with E. coli (setting [15]), >64 µg/mL; against E. coli (setting [16]), >64 µg/mL; in the experiment with E. coli (setting [17]) it was 8 µg/mL (≈ 9.19 µM).

For `CCC1OC(=O)C(C)C(=O)C(C)C(OC2OC(C)CC(Nc3cnccn3)C2O)C(C)(OC)CC(C)CNC(C)C2N(CCCCn3cc(-c4cccc(N)c4)nn3)C(=O)OC12C` (centres unmarked) [FSM-120410], the MIC in the experiment with S. aureus (setting [1]), against S. aureus (setting [2]), in the experiment on S. aureus (setting [3]), with S. aureus (setting [4]), in the experiment on A. baumannii (setting [5]) and in the experiment with A. baumannii (setting [6]) was >64 µg/mL in each case. Further, the minimum inhibitory concentration (MIC) in the experiment on A. baumannii (setting [7]), with P. aeruginosa (setting [8]), with P. aeruginosa (setting [9]), with P. aeruginosa (setting [10]), against K. pneumoniae (setting [11]) and in the experiment on K. pneumoniae (setting [12]) was >64 µg/mL each time. Further, the MIC in the experiment with K. pneumoniae (setting [13]), in the experiment with E. coli (setting [14]), against E. coli (setting [15]), against E. coli (setting [16]) and against E. coli (setting [17]) was >64 µg/mL throughout.

In the case of `CCC1OC(=O)C(C)C(=O)C(C)C(OC2OC(C)CC(N(C)CCO)C2O)C(C)(OC)CC(C)CN(C)C(C)C2N(CCCCn3cc(-c4cccc(N)c4)nn3)C(=O)OC12C` (centres unmarked) [FSM-120419], the MIC was 32 µg/mL (≈ 36.7 µM) in the experiment with S. aureus (setting [1]); 32 µg/mL (≈ 36.7 µM) in the experiment on S. aureus (setting [2]); >64 µg/mL against S. aureus (setting [3]); 32 µg/mL (≈ 36.7 µM) with S. aureus (setting [4]); >64 µg/mL against A. baumannii (setting [5]); >64 µg/mL in the experiment with A. baumannii (setting [6]). Besides, the minimal inhibitory concentration (MIC) in the experiment on A. baumannii (setting [7]) is >64 µg/mL; with P. aeruginosa (setting [8]), >64 µg/mL; with P. aeruginosa (setting [9]), >64 µg/mL; in the experiment with P. aeruginosa (setting [10]), >64 µg/mL; against K. pneumoniae (setting [11]), 16 µg/mL (≈ 18.3 µM); against K. pneumoniae (setting [12]), >64 µg/mL. Besides, the MIC against K. pneumoniae (setting [13]) is >64 µg/mL; in the experiment on E. coli (setting [14]), >64 µg/mL; against E. coli (setting [15]) it was >64 µg/mL; against E. coli (setting [16]), >64 µg/mL; with E. coli (setting [17]), 4 µg/mL (≈ 4.59 µM).

Turning to `CCC1OC(=O)C(C)C(=O)C(C)C(OC2OC(C)CC(N(C)CCCS(C)(=O)=O)C2O)C(C)(OC)CC(C)CNC(C)C2N(CCCCn3cc(-c4cccc(N)c4)nn3)C(=O)OC12C` (centres unmarked) [FSM-120420], the MIC is 32 µg/mL (≈ 34.3 µM) with S. aureus (setting [1]); 32 µg/mL (≈ 34.3 µM) in the experiment with S. aureus (setting [2]); >64 µg/mL in the experiment on S. aureus (setting [3]); 64 µg/mL (≈ 68.5 µM) in the experiment on S. aureus (setting [4]); 32 µg/mL (≈ 34.3 µM) with A. baumannii (setting [5]); 64 µg/mL (≈ 68.5 µM) with A. baumannii (setting [6]). Besides, the MIC against A. baumannii (setting [7]) is >64 µg/mL; against P. aeruginosa (setting [8]), >64 µg/mL; against P. aeruginosa (setting [9]), >64 µg/mL; in the experiment with P. aeruginosa (setting [10]), 64 µg/mL (≈ 68.5 µM); against K. pneumoniae (setting [11]), 16 µg/mL (≈ 17.1 µM); against K. pneumoniae (setting [12]), >64 µg/mL. Also, the MIC in the experiment on K. pneumoniae (setting [13]) was >64 µg/mL; in the experiment with E. coli (setting [14]), 64 µg/mL (≈ 68.5 µM); against E. coli (setting [15]), 32 µg/mL (≈ 34.3 µM); with E. coli (setting [16]), >64 µg/mL; against E. coli (setting [17]) it was 2 µg/mL (≈ 2.14 µM).

Turning to `CCC1OC(=O)C(C)C(=O)C(C)C(OC2OC(C)CC(N(C)CCCS(C)(=O)=O)C2O)C(C)(OC)CC(C)CN(C)C(C)C2N(CCCCn3cc(-c4cccc(N)c4)nn3)C(=O)OC12C` (centres unmarked) [FSM-120421], the MIC in the experiment on S. aureus (setting [1]), against S. aureus (setting [2]), in the experiment with S. aureus (setting [3]), against S. aureus (setting [4]), with A. baumannii (setting [5]) and with A. baumannii (setting [6]) was >64 µg/mL each time. The MIC is >64 µg/mL against A. baumannii (setting [7]); >64 µg/mL in the experiment on P. aeruginosa (setting [8]); >64 µg/mL in the experiment on P. aeruginosa (setting [9]); >64 µg/mL in the experiment on P. aeruginosa (setting [10]); 64 µg/mL (≈ 67.5 µM) in the experiment on K. pneumoniae (setting [11]); >64 µg/mL in the experiment on K. pneumoniae (setting [12]). For the same molecule, the minimum inhibitory concentration (MIC) was >64 µg/mL against K. pneumoniae (setting [13]); >64 µg/mL against E. coli (setting [14]); >64 µg/mL in the experiment on E. coli (setting [15]); >64 µg/mL against E. coli (setting [16]); 64 µg/mL (≈ 67.5 µM) with E. coli (setting [17]).

For `CCC1OC(=O)C(C)C(=O)C(C)C(OC2OC(C)CC(N(C)CCO)C2O)C(C)(OC)CC(C)CNC(C)C2N(CCCCn3cc(-c4cccc(N)c4)nn3)C(=O)OC12C` (centres unmarked) [FSM-120418], the MIC was 16 µg/mL (≈ 18.6 µM) with S. aureus (setting [1]); 16 µg/mL (≈ 18.6 µM) in the experiment on S. aureus (setting [2]); >64 µg/mL in the experiment with S. aureus (setting [3]); 16 µg/mL (≈ 18.6 µM) against S. aureus (setting [4]); 16 µg/mL (≈ 18.6 µM) with A. baumannii (setting [5]); 32 µg/mL (≈ 37.3 µM) against A. baumannii (setting [6]). The MIC was >64 µg/mL with A. baumannii (setting [7]); >64 µg/mL in the experiment with P. aeruginosa (setting [8]); >64 µg/mL against P. aeruginosa (setting [9]); 32 µg/mL (≈ 37.3 µM) against P. aeruginosa (setting [10]); 8 µg/mL (≈ 9.32 µM) with K. pneumoniae (setting [11]); 64 µg/mL (≈ 74.6 µM) against K. pneumoniae (setting [12]). Moreover, the minimal inhibitory concentration (MIC) was >64 µg/mL in the experiment with K. pneumoniae (setting [13]); 8 µg/mL (≈ 9.32 µM) in the experiment with E. coli (setting [14]); 8 µg/mL (≈ 9.32 µM) in the experiment on E. coli (setting [15]); >64 µg/mL with E. coli (setting [16]); 1 µg/mL (≈ 1.17 µM) with E. coli (setting [17]).
